Assay results published in US11427567B2, “Imidazolyl pyrimidinylamine compounds as CDK2 inhibitors” (Incyte Corporation, priority 2019, dated 2022).

Target: CDK2/Cyclin E1 (Homo sapiens (Human), UniProt P24941)
Assay: CDK2/Cyclin E1 HTRF enzyme activity assay (Example A)
Assay type: biochemical
Conditions: 1 mM ATP
Description: Assays were conducted in white 384-well polystyrene plates in a final reaction volume of 8 μL. […] HTRF signals were read after 1 hour at room temperature on a PHERAstar FS plate reader (BMG Labtech). Data was analyzed with IDBS XLFit and GraphPad Prism 5.0 software using a three or four parameter dose response curve to determine IC50 for each compound.

| IC50 [nM] | SMILES |
| --- | --- |
| ≤ 50 | CS(=O)(=O)N1CCC(Nc2ncc(C(F)(F)F)c(-c3cn(-c4c(F)cccc4C#N)cn3)n2)CC1 [Example 294, 3-Fluoro-2-(4-(2-((1-(methylsulfonyl)piperidin-4-yl)amino)-5-(trifluoromethyl)pyrimidin-4-yl)-1H-imidazol-1-yl)benzonitrile] |
| ≤ 50 | CN(C)CCOc1ccc(-n2cnc(-c3nc(NC4CCN(S(C)(=O)=O)CC4)ncc3C(F)(F)F)c2)c(C#N)c1 [Example 435, 5-(2-(Dimethylamino)ethoxy)-2-(4-(2-((1-(methylsulfonyl)piperidin-4-yl)amino)-5-(trifluoromethyl)pyrimidin-4-yl)-1H-imidazol-1-yl)benzonitrile] |
| ≤ 50 | CS(=O)(=O)N1CCC(Nc2ncc(C(F)(F)F)c(-c3cn(-c4cccc(CCN5CCC5)c4Cl)cn3)n2)CC1 [Example 373, 4-(1-(3-(2-(Azetidin-1-yl)ethyl)-2-chlorophenyl)-1H-imidazol-4-yl)-N-(1-(methylsulfonyl)piperidin-4-yl)-5-(trifluoromethyl)pyrimi-din-2-amine] |
| ≤ 50 | CS(=O)(=O)N1CCC(Nc2ncc(C(F)(F)F)c(-c3cn(-c4ccc(Cn5cncn5)cc4Cl)cn3)n2)CC1 [Example 240, 4-(1-(4-((1H-1,2,4-Triazol-1-yl)methyl)-2-chlorophenyl)-1H-imidazol-4-yl)-N-(1-(methylsulfonyl)piperidin-4-yl)-5-(trifluoromethyl)pyrimidin-2-amine] |
| ≤ 50 | Cc1ncn(C)c1-c1ccc(-n2cnc(-c3nc(NC4CCN(S(C)(=O)=O)CC4)ncc3C(F)(F)F)c2)c(Cl)c1 [Example 123, 4-(1-(2-Chloro-4-(1,4-dimethyl-1H-imidazol-5-yl)phenyl)-1H-imidazol-4-yl)-N-(1-(methylsulfonyl)-piperidin-4-yl)-5-(trifluoromethyl)-pyrimidin-2-amine] |
| ≤ 50 | CS(=O)(=O)N1CCC(Nc2ncc(C(F)(F)F)c(-c3cn(-c4ccc(CN5CC6(CC(O)C6)C5)cc4Cl)cn3)n2)CC1 [Example 202, 2-(3-Chloro-4-(4-(2-((1-(methylsulfonyl)-piperidin-4-yl)amino)-5-(trifluoromethyl)-pyrimidin-4-yl)-1H-imidazol-1-yl)benzyl)-2-azaspiro[3.3]heptan-6-ol] |
| ≤ 50 | COc1ccc(-n2cnc(-c3nc(NC4CCN(S(C)(=O)=O)CC4)ncc3C(F)(F)F)c2)c(C#N)n1 [Example 39, 6-Methoxy-3-(4-(2-((1-(methylsulfonyl)piperidin-4-yl)amino)-5-(trifluoromethyl)pyrimidin-4-yl)-1H-imidazol-1-yl)picolinonitrile] |
| ≤ 50 | CN(C)CCc1cccc(-n2cnc(-c3nc(NC4CCN(S(C)(=O)=O)CC4)ncc3C(F)(F)F)c2)c1Cl [Example 370, 4-(1-(2-Chloro-3-(2-(dimethylamino)ethyl)phe-nyl)-1H-imidazol-4-yl)-N-(1-(methylsulfonyl)piperidin-4-yl)-5-(trifluoromethyl)pyrimi-din-2-amine] |
| ≤ 50 | C[C@@H]1CN(S(C)(=O)=O)CC[C@@H]1Nc1ncc(C(F)(F)F)c(-c2cn(CC(C)(C)O)cn2)n1 [Example 327, 2-Methyl-1-(4-(2-(((3R,4S)-3-methyl-1-(methylsulfonyl)piperidin-4-yl)amino)-5-(trifluoromethyl)pyrimidin-4-yl)-1H-imidazol-1-yl)propan-2-ol] |
| ≤ 50 | Cn1cc(S(=O)(=O)N2CC[C@@H](Nc3ncc(C(F)(F)F)c(-c4cn(CC(C)(C)O)cn4)n3)[C@H](F)C2)cn1 [Example 336, 1-(4-(2-(((3R,4R)-3-Fluoro-1-((1-methyl-1H-pyrazol-4-yl)sulfonyl)piperidin-4-yl)amino)-5-(trifluoromethyl)pyrimidin-4-yl)-1H-imidazol-1-yl)-2-methylpropan-2-ol] |
| ≤ 50 | CCN1CCN(Cc2ccc(-n3cnc(-c4nc(NC5CCN(S(C)(=O)=O)CC5)ncc4C(F)(F)F)c3)c(C#N)c2)CC1 [Example 339, 5-((4-Ethylpiperazin-1-yl)methyl)-2-(4-(2-((1-(methylsulfonyl)piperidin-4-yl)amino)-5-(trifluoromethyl)pyrimidin-4-yl)-1H-imidazol-1-yl)benzonitrile] |
| ≤ 50 | Cn1cc(-c2nc(NC3CCN(S(C)(=O)=O)CC3)ncc2C(F)(F)F)nc1CC(C)(C)O [Example 18, 2-Methyl-1-(1-methyl-4-(2-((1-(methylsulfonyl)piperidin-4-yl)amino)-5-(trifluoromethyl)pyrimidin-4-yl)-1H-imidazol-2-yl)propan-2-ol] |
| ≤ 50 | CO[C@@H]1CCN(Cc2ccc(-n3cnc(-c4nc(NC5CCN(S(C)(=O)=O)CC5)ncc4C(F)(F)F)c3)c(Cl)c2)C1 [Example 207, (R)-4-(1-(2-Chloro-4-((3-methoxypyrrolidin-1-yl)methyl)phenyl)-1H-imidazol-4-yl)-N-(1-(methylsulfonyl)-piperidin-4-yl)-5-(trifluoromethyl)-pyrimidin-2-amine] |
| ≤ 50 | CN(C)C1CCN(c2ccc(-n3cnc(-c4nc(NC5CCN(S(C)(=O)=O)CC5)ncc4C(F)(F)F)c3)c(Cl)c2)CC1 [Example 145, 4-(1-(2-Chloro-4-(4-(dimethylamino)-piperidin-1-yl)-phenyl)-1H-imidazol-4-yl)-N-(1-(methylsulfonyl)-piperidin-4-yl)-5-(trifluoromethyl)-pyrimidin-2-amine] |
| ≤ 50 | Cc1nccc(-n2cc(-c3nc(N[C@H]4CCN(S(C)(=O)=O)C[C@H]4F)ncc3C(F)(F)F)nc2C)c1F [Example 313, N-((3R,4S)-3-Fluoro-1-(methylsulfonyl)piperidin-4-yl)-4-(1-(3-fluoro-2-methylpyridin-4-yl)-2-methyl-1H-imidazol-4-yl)-5-(trifluoromethyl)pyrimidin-2-amine] |
| ≤ 50 | CCCc1ccc(-n2cnc(-c3nc(NC4CCN(S(C)(=O)=O)CC4)ncc3C(F)(F)F)c2)c(C#N)n1 [Example 94, 3-(4-(2-((1-(Methylsulfonyl)piperidin-4-yl)amino)-5-(trifluoromethyl)pyrimidin-4-yl)-1H-imidazol-1-yl)-6-propylpicolinonitrile] |
| ≤ 50 | CS(=O)(=O)N1CCC(Nc2ncc(C(F)(F)F)c(-c3cn(-c4ccc(CN5CC6CCC5CC6)cc4Cl)cn3)n2)CC1 [Example 179, 4-(1-(4-((2-Azabicyclo[2.2.2]octan-2-yl)methyl)-2-chlorophenyl)-1H-imidazol-4-yl)-N-(1-(methylsulfonyl)piperidin-4-yl)-5-(trifluoromethyl)pyrimidin-2-amine] |
| ≤ 50 | CC(O)c1cccc(-n2cnc(-c3nc(NC4CCN(S(C)(=O)=O)CC4)ncc3C(F)(F)F)c2)c1Cl (stereo not drawn) [Example 83, 1-(2-Chloro-3-(4-(2-((1-(methylsulfonyl)piperidin-4-yl)amino)-5-(trifluoromethyl)pyrimidin-4-yl)-1H-imidazol-1-yl)phenyl)ethan-1-ol] |
| ≤ 50 | CC(c1cccc(-n2cnc(-c3nc(NC4CCN(S(C)(=O)=O)CC4)ncc3C(F)(F)F)c2)c1Cl)N1CCC1 (stereo not drawn) [Example 469, 4-(1-(3-(1-(Azetidin-1-yl)ethyl)-2-chlorophenyl)-1H-imidazol-4-yl)-N-(1-(methylsulfonyl)piperidin-4-yl)-5-(trifluoromethyl)pyrimidin-2-amine] |
| ≤ 50 | CS(=O)(=O)N1CCC(Nc2ncc(C(F)(F)F)c(-c3cn(-c4ccc5nccnc5c4Br)cn3)n2)CC1 [Example 162, 4-(1-(5-Bromoquinoxalin-6-yl)-1H-imidazol-4-yl)-N-(1-(methylsulfonyl)piperidin-4-yl)-5-(trifluoromethyl)pyrimidin-2-amine] |
| ≤ 50 | CS(=O)(=O)N1CCC(Nc2ncc(C(F)(F)F)c(-c3cn(CC(F)F)cn3)n2)CC1 [Example 21, 4-(1-(2,2-Difluoroethyl)-1H-imidazol-4-yl)-N-(1-(methylsulfonyl)piperidin-4-yl)-5-(trifluoromethyl)pyrimidin-2-amine] |
| ≤ 50 | CN1CC(c2ccc(-n3cnc(-c4nc(NC5CCN(S(C)(=O)=O)CC5)ncc4C(F)(F)F)c3)c(C#N)c2)C1 [Example 428, 5-(1-Methylazetidin-3-yl)-2-(4-(2-((1-(methylsulfonyl)piperidin-4-yl)amino)-5-(trifluoromethyl)pyrimidin-4-yl)-1H-imidazol-1-yl)benzonitrile] |
| ≤ 50 | CC(C)NCc1cc(F)c(-n2cnc(-c3nc(N[C@@H]4CCN(S(C)(=O)=O)C[C@H]4F)ncc3C(F)(F)F)c2)c(F)c1 [Example 391, 4-(1-(2,6-Difluoro-4-((isopropylamino)methyl)phenyl)-1H-imidazol-4-yl)-N-((3R,4R)-3-fluoro-1-(methylsulfonyl)piperidin-4-yl)-5-(trifluoromethyl)pyrimidin-2-amine] |
| ≤ 50 | C[C@@H]1CN(S(C)(=O)=O)CC[C@@H]1Nc1ncc(C(F)(F)F)c(-c2cn(-c3ccc(C4CCCCN4)cc3Cl)cn2)n1 (single isomer, unassigned) [Example 278] |
| ≤ 50 | Cc1cc(CN(C)C)ccc1-n1cnc(-c2nc(NC3CCN(S(C)(=O)=O)CC3)ncc2C(F)(F)F)c1 [Example 271, 4-(1-(4-((Dimethylamino)methyl)-2-methylphenyl)-1H-imidazol-4-yl)-N-(1-(methylsulfonyl)piperidin-4-yl)-5-(trifluoromethyl)pyrimidin-2-amine] |
| ≤ 50 | Cc1cc(C#N)ccc1-n1cnc(-c2nc(NC3CCN(S(C)(=O)=O)CC3)ncc2C(F)(F)F)c1 [Example 35, 3-Methyl-4-(4-(2-((1-(methylsulfonyl)piperidin-4-yl)amino)-5-(trifluoromethyl)pyrimidin-4-yl)-1H-imidazol-1-yl)benzonitrile] |
| ≤ 50 | CN(C)Cc1cccc(-n2cnc(-c3nc(NC4CCN(S(C)(=O)=O)CC4)ncc3C(F)(F)F)c2)c1Cl [Example 77, 4-(1-(2-Chloro-3-((dimethylamino)methyl)phenyl)-1H-imidazol-4-yl)-N-(1-(methylsulfonyl)piperidin-4-yl)-5-(trifluoromethyl)pyrimidin-2-amine] |
